Here are results for two compounds from patent US10111877B2, “Modulators of androgen synthesis” (Tangent Reprofiling Limited, priority 2012, dated 2018).

For series [1], the system named is BxPC-3 cells. The series is described as follows: Orthotopic pancreatic tumor mouse xenograft model. To be noted: 60 mg/kg intraperitoneal every third day. Set-up: key to Pancreatic tumor weight, vs vehicle / Bioluminescence imaging Area, vs vehicle / Bioluminescence imaging Average radiation, vs vehicle / Bioluminescence imaging Total flux, vs vehicle / Bioluminescence imaging Area (day 34), vs vehicle / Bioluminescence imaging Average radiation (day 34), vs vehicle / Bioluminescence imaging Total flux (day 34), vs vehicle / Body weight curves, vs vehicle / Body weight at sacrifice relative to Day −1 body weight, vs vehicle: ***: statistically significant difference with p-value <0.001; **: p-value <0.01; *: p-value <0.05; p-value <0.1; NS: Non-Significant. In kind it is in vivo, mice (athymic nude mice). Here is the method: Animals were divided into four groups of 10 mice each which underwent the following treatment regime: Group 1, daily oral administration of vehicle comprising 1% (v/v) ethanol, 20% (v/v) PEG 400, 79% (v/v) acid solution and 0.4% (w/v) TWEEN™ 80 at a final pH of 3.1-3.3 (Control); Group 2, intraperitoneal administration of 60 mg/kg of Reference Compound gemcitabine every third day for four rounds followed by one week rest before repeating the dosing; Group 3, daily oral administration of 1 mg/kg of Test Compound VAL401; and Group 4, daily administration of 2 mg/kg Test Compound VAL401. Administration of Test and Reference Compounds began on Day 1 and continued until Day 33. Body weights of the animals were measured two times a week throughout the in-life phase and blood samples for PK analyses were collected from saphenous vein from all animals 2 hours after compound administration at study Day 24. […] The animals were sacrificed at Day 34. At the termination, brain tissues were collected and frozen. Tumors were weighed, measured in three dimensions followed by fixation and embedding in paraffin for possible histopathological assessment. Also spleen, liver and lungs were collected for possible analysis.
Statistical analysis was performed with statistical software R (version 3.1.2). The parameters with multiple measurements in different time points per animal were analyzed using mixed-effects models and model contrasts. […] The obtained p-values values were adjusted for multiple comparisons if necessary. The continuous valued end-point parameters were analyzed using parametric or non-parametric test. If the groups were normally distributed with equal variance, parametric one-way ANOVA followed by Tukey's HSD post hoc test was used. If the assumptions were not fulfilled as such or after data transform (e.g. logarithmic), nonparametric Kruskal-Wallis test followed by Mann-Whitney U test was used.

The target of the next series is T1, HSD10 (Homo sapiens, UniProt Q99714).
T1 construct: endogenous in cells; host or cells: PC3 cells
T1 sequence (Q99714 1-261): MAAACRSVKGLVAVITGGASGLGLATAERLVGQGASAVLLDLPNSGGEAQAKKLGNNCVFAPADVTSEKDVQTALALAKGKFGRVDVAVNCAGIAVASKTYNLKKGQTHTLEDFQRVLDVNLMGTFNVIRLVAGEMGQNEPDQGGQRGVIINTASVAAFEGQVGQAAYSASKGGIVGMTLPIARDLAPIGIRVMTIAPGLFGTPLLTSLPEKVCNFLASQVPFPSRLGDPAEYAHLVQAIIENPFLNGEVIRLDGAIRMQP
The series is described as follows: HSD10 Enzyme Inhibition Assay. The class given is biochemical. To be noted: 50 μM drug. Here is the method: An HSD10 inhibition assay was performed to determine the effect of several anti-psychotics on enzyme activity.
(§1) PC3 cells are from a cell line derived from a hormone refractory prostate cancer and are known to overexpress HSD10. […] Cells line tests were carried out in presence and absence of testosterone for comparison. After incubation in the drug treatment for 96 hours at 37° C., 5% CO2, the supernatant was removed from all wells of cells, and cells washed with 200 μL PBS.
(§2) After removal of the PBS, cell number was determined using a lysed cell LDH assay (CytoTox 96 Non-radioactive cytotoxicity assay (LDH Assay); Promega, Co., Madison Wis.). Cells were lysed with 0.9% Triton-X in PBS for 2 hours at 37° C., 5% CO2 and 50 μL of this cell lysate was transferred to a fresh 96 well plate. About 50 μL of CytoTox 96 assay reagent was added to the transferred cell lysate and this mixture was incubated at room temperature in the dark for 20 minutes. After the addition of 50 μL stop reagent, the optical absorbance was determined for each incubated mixture at 492 nm. […] The mean and standard error was calculated from at least 3 wells.

The next series deals with PC3 cells. Description: Cell growth inhibition, lysed cell LDH assay, prostate cancer cell line. The class given is cell-based. On the procedure:
To determine whether Risperidone could be effective in inhibiting growth of cancer cells overexpressing HSD10, a lysed cell LDH assay was conducted using cells from a PC3 cell line.
as §1, §2
To determine the optimal concentration of Risperidone and CLA necessary to inhibit cell growth, a lysed cell LDH assay was conducted using various concentration of Risperidone and CLA. PC3 cells were cultured and a lysed cell LDH assay was conducted as described above, except that the various drug treatments evaluated contained either 0 μM, 12.5 μM, 25 μM, or 50 μM Risperidone in combination with 0 μM, 6.25 μM, 12.5 μM, 25 μM, 50 μM, or 100 μM CLA (see Table 3).
as §2, with “PBS from the cell cultures described above,” for “PBS,”, “assay.” for “assay (CytoTox 96 Non-radioactive cytotoxicity assay (LDH Assay); Promega, Co., Madison Wis.).”

A further series concerns A549 cells. Description: Cell growth inhibition, lysed cell LDH assay, lung cancer cell line. The class given is cell-based.
A further series has as its system MCF7 cells. Description: Cell growth inhibition, lysed cell LDH assay, breast cancer cell line. In kind it is cell-based. On the procedure: (§3) To determine whether Risperidone could be effective in inhibiting growth of cancer cells overexpressing HSD10, a lysed cell LDH assay was conducted using cells taken from a prostate cancer cell line, a lung cancer cell line, a breast cancer cell line, an ovarian cancer cell line, each of which was known to overexpress HSD10, and a non-cancerous cell line.
(§4) After incubation in the drug treatment for 96 hours at 37° C., 5% CO2, the supernatant was removed from all wells of cells, and cells washed with 200 μL PBS.
as §2, with “PBS from the cell cultures described above,” for “PBS,”, “assay.” for “assay (CytoTox 96 Non-radioactive cytotoxicity assay (LDH Assay); Promega, Co., Madison Wis.).”

The subject of a further series is OVCAR-3 cells. Description: Cell growth inhibition, lysed cell LDH assay, ovarian cancer cell line. In kind it is cell-based. Here is the method: as §3, §4
as §2, with “PBS from the cell cultures described above,” for “PBS,”, “assay.” for “assay (CytoTox 96 Non-radioactive cytotoxicity assay (LDH Assay); Promega, Co., Madison Wis.).”

Another series relates to VERO cells. The series is described as follows: Cell growth inhibition, lysed cell LDH assay, non-cancerous cell line. The class given is cell-based. On the procedure: as §3, §4
as §2, with “PBS from the cell cultures described above,” for “PBS,”, “assay.” for “assay (CytoTox 96 Non-radioactive cytotoxicity assay (LDH Assay); Promega, Co., Madison Wis.).”

The subject of series [2] is BxPC-3 cells. Description: Resazurin-based cell viability assay, pancreatic cancer cell line. As to conditions: Homo sapiens, BXPC-3, read-out: growth inhibition of Bx-PC3 cells. On the procedure:
To determine whether Risperidone alone, or in combination with CLA could inhibit cell growth of cells taken from a pancreatic cancer cell line overexpressing HSD10, a resazurin-based cell viability assay was conducted on Bx-PC3 cells.
BxPC-3 cells are from a cell line derived from a human pancreatic adenocarcinoma and are known to overexpress HSD10. BxPC-3 cells were seeded at a density of 4,000 cells per well in a 384 well plate, and incubated at 37° C., 5% CO2 for 24 hours in standard growth media (RPMI nutrient media, 5% heat-inactivated Fetal Calf Serum, 2 mM L-Glutamine). The media was then removed by pipette and replaced with 50 μL BxPC-3 treatment media comprising 125 μM fatty acid-free BSA, 2 mM L-Glutamine and one of the following drug treatments: 0.1 μM, 2 μM, or 50 μM Risperidone; 0.1 μM, 2 μM, or 50 μM CLA; or 0.1 μM, 2 μM, or 50 μM of Risperidone and CLA (in equimolar amounts). After incubation in the drug treatment for 72 hours at 37° C., 5% CO2, viable cell number was determined using a resazurin-based cell viability assay (PRESTOBLUE®; Invitrogen, Carlsbad, Calif.). To each well, 7 μL of PRESTOBLUE® reagent was added and the plates incubated for 60 minutes at 37° C., 5% CO2. After incubation, the fluorescence intensity of each well was determined using a microplate reader by excitation and 570 nm and recording emission at 600 nm. The percentage of viable cell number was calculated by normalizing the experimental fluorescence intensity, where 100% is set to cells receiving no drug treatment (cells metabolizing at optimal rate), and 0% is set to readings from cells treated with Paclitaxel (cells not metabolizing at all due to their destruction by anti-cancer drug). A value under 50% could be considered a useful indication of potential efficacy.

A further series concerns PC-3M-luc cells. Description: Orthotopic prostate tumor mouse xenograft model. As to conditions: single drug.
Where [3] appears, read: 50 μM Risperidone and/or 50 μM CLA, 1 μM Testosterone (T) where added, 96 hours.

Structures are written as SMILES. Where two headings read alike, the source gives them in different places.

Experimental for A549 cells: To determine whether Risperidone alone, or in combination with CLA could inhibit cell growth of cells taken from a lung cancer cell line overexpressing HSD10, A549 cells were seeded at a density of 2,000 cells per well in a 96 well plate, and incubated at 37° C., 5% CO2 for 48 hours in standard growth media (DMEM nutrient media, 10% Fetal Calf Serum, 2 mM L-Glutamine). The media was then removed by pipette and replaced with the appropriate drug treatment as follows: 50 μM Risperidone in A459 treatment media (DMEM nutrient media, 125 uM fatty acid free BSA, 2 mM L-Glutamine); 50 μM CLA in A459 treatment media; 50 μM Risperidone and 50 μM CLA in A459 treatment media; 50 μM Risperidone and 1 μM Testosterone in A459 treatment media; 50 μM Risperidone, 50 μM CLA, and 1 μM Testosterone in A459 treatment media. After incubation in the drug treatment for 96 hours at 37° C., 5% CO2, the supernatant was removed from all wells of cells, and cells washed with 200 μL PBS.
After removal of the PBS from the cell cultures described above, cell number was determined using a lysed cell LDH assay. Cells were lysed with 0.9% Triton-X in PBS for 2 hours at 37° C., 5% CO2 and 50 μL of this cell lysate was transferred to a fresh 96 well plate. About 50 μL of CytoTox 96 assay reagent was added to the transferred cell lysate and this mixture was incubated at room temperature in the dark for 20 minutes. After the addition of 50 μL stop reagent, the optical absorbance was determined for each incubated mixture at 492 nm. The percentage cell number was calculated by normalizing the experimental counts, where 100% is set to cells receiving no drug treatment, and 0% is set to readings from wells containing no cells. The mean and standard error was calculated from at least 3 wells.
Experimental for PC-3M-luc cells: Immunodeficeint male mice (athymic nude mice) were acclimated to the laboratory for at least one week prior to implantation of tumor. PC-3M-luc cells obtained directly from in vitro culture were then injected into the prostate on Day 0. Animals were divided into six groups of 12 mice each. Primary tumor size and metastases were assessed by bioluminescence measurements on day 6, 13, 20, 27, 34, and 40. On day 7 a five week treatment regime was initiated. Both individual drug and high and low dose combination were examined by administering the drugs twice daily on an individual body weight basis using a dose escalation protocol (Table 7). If tumors grew above a pre-determined level, or mice lost more than 10% of bodyweight, they were culled. The primary tumor was excised, weighed and measured. Individual organs were imaged to assess metastatic burden.

In the case of `Nc1ccn([C@@H]2O[C@H](CO)[C@@H](O)C2(F)F)c(=O)n1` [Gemcitabine, gemcitabine], in the series on BxPC-3 cells [1], the “Bioluminescence imaging Area (day 34), vs vehicle” value was “NS”; the “Bioluminescence imaging Area, vs vehicle” value is listed as “NS”; the “Bioluminescence imaging Average radiation (day 34), vs vehicle” value was “NS”; the “Bioluminescence imaging Average radiation, vs vehicle” value is recorded as “NS”. For the same compound, in the series with BxPC-3 cells [1], the “Bioluminescence imaging Total flux (day 34), vs vehicle” value was “NS”; the “Bioluminescence imaging Total flux, vs vehicle” value is reported as “NS”; the “Body weight at sacrifice relative to Day −1 body weight, vs vehicle” value is “NS”; the “Body weight curves, vs vehicle” value is “NS”. Moreover, in the series on BxPC-3 cells [1], the “Pancreatic tumor volume, vs vehicle” value was “↓**” and the “Pancreatic tumor weight, vs vehicle” value is recorded as “NS”.

For orientation: inhibition means the relative decrease from the control value, in per cent. As for `Cc1nc2n(c(=O)c1CCN1CCC(c3noc4cc(F)ccc34)CC1)CCCC2` [Risperidone, 3-[2-[4-(6-fluoro-1,2-benzoxazol-3-yl)piperidin-1-yl]ethyl]-2-methyl-6,7,8,9-tetrahydropyrido[1,2-a]pyrimidin-4-one], on HSD10, the “Oxidative Activity Rate” value is 1.0 µM/min. At HSD10, the “Reductive Activity Rate” value amounted to 3.3 µM/min. The inhibition at 50 µM at HSD10 (read-out: Oxidative Activity Drug Inhibition) was 88%; on HSD10 (read-out: Reductive Activity Drug Inhibition) it was 63%; in the series on PC3 cells (Homo sapiens, PC-3, 50 μM), roughly 50%; with A549 cells (Homo sapiens, A549, read-out: growth inhibition of A549 cells), greater than 60%; in the series on MCF7 cells (Homo sapiens, 50 μM), roughly 65%; in the series on OVCAR-3 cells (Homo sapiens, 50 μM), roughly 35%. Also, the inhibition at 50 µM in the series on BxPC-3 cells [2] was roughly 60%. The “Percentage of Lysed Cells” value in the series with PC3 cells (12.5 μM Risperidone, 0 μM CLA (Table 4)) was 81 ± 3.6%; in the series with PC3 cells (12.5 μM of each drug, 96 hours, 100% = no drug treatment (Table 3)), 102 ± 5.4%; in the series with PC3 cells (25 μM Risperidone, 0 μM CLA (Table 4)), 73 ± 2.2%; with PC3 cells (25 μM of each drug, 96 hours, 100% = no drug treatment (Table 3)), 93 ± 0.51%; in the series with PC3 cells (50 μM Risperidone, 0 μM CLA (Table 4)), 79 ± 0.7%; in the series with PC3 cells (50 μM of each drug, 96 hours, 100% = no drug treatment (Table 3)), 52 ± 0.22%. The “Percentage of Lysed Cells” value was determined as 52 ± 1.7% with PC3 cells (PC3, 50 μM Risperidone and/or 50 μM CLA, 1 μM Testosterone (T) where added, 96 hours (Table 5)); 38 ± 1.9% in the series with A549 cells (A549, 50 μM Risperidone and/or 50 μM CLA, 1 μM Testosterone (T) where added, 96 hours); 35 ± 2.4% with MCF7 cells (setting [3]); 64 ± 0.4% in the series with OVCAR-3 cells (setting [3]); 94 ± 1.7% in the series on VERO cells (VERO, 50 μM Risperidone and/or 50 μM CLA, 1 μM Testosterone (T) where added, 96 hours). In the series with PC3 cells (either 25 μM or 50 μM Risperidone alone (Table 4 experiment)), the “growth inhibition of PC3 cells” value is listed as 20-30%. For the same compound, the “effect on growth of cells from the non-cancerous cell line VERO” value in the series on VERO cells (50 μM) was “neither Risperidone nor CLA had any measurable effect”. In addition, the “body weight throughout the study” value with PC-3M-luc cells (by Day 40) is “maintained a constant weight”. The animal loss result in the series on PC-3M-luc cells (by day 34) is on record as “about 10%”. Moreover, the “Tumor Growth Inhibition” value with PC-3M-luc cells (calculated on Day 34, dosing per Table 7) is 16%. Besides, the “Animal Survival (overall survivorship)” value in the series on PC-3M-luc cells (day 40, dosing per Table 7) is 33%.
